{"source": "patent US20080300317A1", "about": "(Chevron U.S.A. Inc., priority 2007, published 2008)", "key": {"[1]": {"system": "influenza A/PR/8/34 (H1N1)", "experiment": "microbe, parasite or virus in culture", "assay_type": "cell-based, influenza A virus"}, "influenza A/WS/33 (H1N1)": {"system": "influenza A/WS/33 (H1N1)", "experiment": "microbe, parasite or virus in culture", "assay_type": "cell-based, influenza A virus"}, "influenza B/GL/1739/54": {"system": "influenza B/GL/1739/54", "experiment": "Anti-viral EC50 experiment, survival of virus-infected Vero cells", "assay_type": "cell-based, influenza B virus", "procedure": "The following MDT compounds were tested: MDT-1, MDT-3, MDT-10, MDT-11, MDT-12, MDT-13, MDT-14, MDT-15, MDT-16, MDT-22, MDT-23, MDT-24, MDT-26, MDT-27, MDT-28, MDT-29, MDT-30, MDT-31, MDT-32, MDT-33, MDT-34, MDT-40, MDT-41, MDT-42, MDT-43, MDT-44, MDT-45, MDT-46, MDT-47, MDT-48, MDT-49, MDT-50, MDT-51, MDT-53, MDT-56, MDT-57, MDT-58, MDT-59, MDT-60, MDT-61, MDT-62, MDT-63, MDT-65, MDT-67, MDT-68 and MDT-69. […] Amantadine and rimantadine are both adamantane derivatives.\nCompound diluents were dimethyl sulfoxide (DMSO), Molecusol ((2-hydroxypropyl)-β-cyclodextrin; Sigma H107), propylene-glycol (PG) and deionized water. Diluents were used singly or in combination as necessary to dissolve the compounds.\nThe medium used for the cell lines was 1× Minimal Essential Medium (MEM) (Invitrogen) supplemented with 1% L-glutamine, 1% penicillin-streptomycin, 0.125% bovine serum albumin (BSA), and 1 μg/ml of TPCK-trypsin.\nThe viruses tested were influenza A/PR/8/34 (H1N1), influenza A/WS/33 (H1N1), influenza A/HK/8/68 (H3N2) and influenza B/GL/1739/54 (no H, N subtyping). Cells used were the Vero line of African green monkey, normal kidney cells. All viruses and cells were obtained from The American Type Culture Collection (Rockville, Md.). Cells were grown in an atmosphere of 4-6% CO2 at 34-38° C. in MEM with 5% fetal bovine serum (FBS), 2 mM glutamine, and 1% penicillin-streptomycin solution to maintain exponential growth.\nThe Vero cells were plated on Day 0. On Day 1, cells were infected with virus and incubated with various concentrations of test compounds. […] On Day 4 the cells were fixed and stained. […] Cell survival due to exposure to test compound was indicative of anti-viral activity."}, "[2]": {"system": "influenza A/HK/8/68 (H3N2)", "experiment": "microbe, parasite or virus in culture", "assay_type": "cell-based, influenza A virus"}, "[3]": {"details": "Table 3, Vero cells, H1N1, n at least 2, No effic. = no efficacy measured, read-out: EC50 Virus A/PR/8/34"}, "[4]": {"details": "Table 3, Vero cells, H1N1, n at least 2, No effic. = no efficacy measured, read-out: EC50 Virus A/WS/33"}, "[5]": {"details": "Table 3, Vero cells, n at least 2, No effic. = no efficacy measured"}, "[6]": {"details": "Table 3, Vero cells, H3N2, n at least 2, No effic. = no efficacy measured"}, "[7]": {"details": "Table 3, MDT compounds, No Tox. = no cytotoxicity measured"}, "[8]": {"details": "Table 3, Vero cells, H1N1, n at least 2, No effic. = no efficacy measured"}}, "note": "Read-outs that look alike come from different tables or passages of the source.", "data": [{"compound": "2-aminotriamantane [MDT-50]", "values": [{"measurement": "EC50", "setting": "[1]; [3]", "result": 20, "unit": "nM"}, {"measurement": "EC50", "setting": "influenza A/WS/33 (H1N1); [4]", "result": 370, "unit": "nM"}, {"measurement": "EC50", "setting": "influenza B/GL/1739/54; [5]", "result": "< 1000", "unit": "nM"}, {"measurement": "EC50 Virus A/HK/8/68", "setting": "[2]; [6]", "result": "No Effic."}, {"measurement": "Cytotoxicity", "setting": "Vero cells; [7]", "result": "10 or above μM"}]}, {"compound": "O=NC12CC3CC4C5CC(CC41)CC2C5C3", "note": "[MDT-26, 1-nitrosodiamantane]", "values": [{"measurement": "EC50", "setting": "[1]; [3]", "result": 140, "unit": "nM"}, {"measurement": "EC50", "setting": "influenza A/WS/33 (H1N1); [4]", "result": 800, "unit": "nM"}, {"measurement": "EC50 Virus B/GL/1739/54", "setting": "influenza B/GL/1739/54; [5]", "result": "No Effic."}, {"measurement": "EC50 Virus A/HK/8/68", "setting": "[2]; [6]", "result": "No Effic."}, {"measurement": "Cytotoxicity", "setting": "Vero cells; [7]", "result": "No Tox."}]}, {"compound": "CC12CC3C4CC5(C)CC3C(C1)C(O)(C5)C4C2", "note": "[MDT-47, 4,9-dimethyl-1-hydroxydiamantane]", "values": [{"measurement": "EC50", "setting": "[1]; [3]", "result": "< 125", "unit": "nM"}, {"measurement": "EC50", "setting": "influenza A/WS/33 (H1N1); [4]", "result": 460, "unit": "nM"}, {"measurement": "EC50 Virus B/GL/1739/54", "setting": "influenza B/GL/1739/54; [5]", "result": "No Effic."}, {"measurement": "EC50 Virus A/HK/8/68", "setting": "[2]; [6]", "result": "No Effic."}, {"measurement": "Cytotoxicity", "setting": "Vero cells; [7]", "result": "No Tox."}]}, {"compound": "CC(N)C12CC3C4CC5CC3C(C1)C(C5)C4C2", "note": "(centres unmarked) [MDT-62, 4-(1-aminoethyl)diamantane]", "values": [{"measurement": "EC50", "setting": "[1]; [3]", "result": 280, "unit": "nM"}, {"measurement": "EC50", "setting": "influenza A/WS/33 (H1N1); [4]", "result": 1940, "unit": "nM"}, {"measurement": "EC50 Virus B/GL/1739/54", "setting": "influenza B/GL/1739/54; [5]", "result": "No Effic."}, {"measurement": "EC50 Virus A/HK/8/68", "setting": "[2]; [6]", "result": "No Effic."}, {"measurement": "Cytotoxicity", "setting": "Vero cells; [7]", "result": "50 or above μM"}]}, {"compound": "CC12CC3CC4C1CC1CC2C(N)(C3)C4(C)C1", "note": "(centres unmarked) [MDT-43, 1,6-dimethyl-2-aminodiamantane]", "values": [{"measurement": "EC50", "setting": "[1]; [3]", "result": 60, "unit": "nM"}, {"measurement": "EC50", "setting": "influenza A/WS/33 (H1N1); [4]", "result": 820, "unit": "nM"}, {"measurement": "EC50 Virus B/GL/1739/54", "setting": "influenza B/GL/1739/54; [5]", "result": "No Effic."}, {"measurement": "EC50 Virus A/HK/8/68", "setting": "[2]; [6]", "result": "No Effic."}, {"measurement": "Cytotoxicity", "setting": "Vero cells; [7]", "result": "10 or above μM"}]}, {"compound": "CC12CC3CC4C5CC(N)(CC41)CC2C5C3", "note": "[MDT-24, 1-methyl-4-aminodiamantane]", "values": [{"measurement": "EC50 Virus A/PR/8/34", "setting": "[1]; [8]", "result": "No Effic."}, {"measurement": "EC50 Virus A/WS/33", "setting": "influenza A/WS/33 (H1N1); [8]", "result": "No Effic."}, {"measurement": "EC50 Virus B/GL/1739/54", "setting": "influenza B/GL/1739/54; [5]", "result": "No Effic."}, {"measurement": "EC50", "setting": "[2]; Table 3, Vero cells, H3N2, n at least 2, No effic. = no efficacy measured, read-out: EC50 Virus A/HK/8/68", "result": 70, "unit": "nM"}, {"measurement": "Cytotoxicity", "setting": "Vero cells; [7]", "result": "No Tox."}]}, {"compound": "CC(N)C12CC3CC(CC(C3)C1)C2.Cl", "note": "(stereo not drawn) [Rimantadine, alpha-methyl-1-adamantanemethylamine hydrochloride, reference compound]", "values": [{"measurement": "EC50", "setting": "[1]; Influenza A virus, Vero, Table 4, controls, cutoff control values compiled through many experiments", "result": "≥ 1000", "unit": "nM"}, {"measurement": "EC50", "setting": "influenza A/WS/33 (H1N1); Influenza A virus, H1N1, Vero, Table 4, controls, cutoff control values compiled through many experiments", "result": "≥ 50000", "unit": "nM"}, {"measurement": "EC50", "setting": "influenza B/GL/1739/54; Influenza B virus, Vero, Table 4, controls, cutoff control values, determined over only 2 experiments", "result": "≥ 50000", "unit": "nM"}, {"measurement": "EC50", "setting": "[2]; Influenza A virus, H3N2, Vero, Table 4, controls, cutoff control values compiled through many experiments", "result": "≤ 1000", "unit": "nM"}, {"measurement": "Cytotoxicity", "setting": "Vero cells; Table 4, controls, No Tox = no cytotoxicity measured", "result": "No Tox."}]}]}
